Test results taken from PubChem BioAssay AID1963429 (Molecular Pharmacology Branch, DTP, NCI, 2024).

Tested on: 126254-015-R-J1-PDC complex spheroid growth, % test/control
Experiment: Anticancer human tumor 126254-015-R-J1-PDC patient-derived soft tissue sarcoma cell line growth inhibition [Asc]
Conditions: for IC50: curve of first compound; for viability, T/C: stronger effect = lower value; active = viability on the fitted dose curve at most 10% of control; inactive = the rest
How it was run: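 Concentration series start at each agent's clinical Cmax, or at 10 microM when none is established, and drop in half-log steps; agents are applied alone or together to complex spheroids built with HUVEC and hMSC.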
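Also: spheroids exposed to compound for seven days.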
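For viability, T/C in this document: 100% = DMSO vehicle control wells.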

Cc1nc(N2CCC3(CC2)COC(C)C3N)c(CO)nc1Sc1ccnc(N)c1Cl (stereo not given) + Cc1c(S(C)(=O)=O)c(-c2cc(F)cc(N3CCN(c4ccc(NS(=O)(=O)c5ccc(NC(CCN6CCC(C(=O)OCCCP(=O)(O)O)CC6)CSc6ccccc6)c(S(=O)(=O)C(F)(F)F)c5)cc4)CC3)c2)c(-c2ccc(Cl)cc2)n1C(C)C
465 nM: IC50 (second compound 10 µM)
inactive: viability, T/C (second compound 0.1 µM, first compound 0.00949 µM) 88.7% | viability, T/C (second compound 0.1 µM, first compound 0.03 µM) 82.2% | viability, T/C (second compound 0.1 µM, first compound 0.0949 µM) 68.6% | viability, T/C (second compound 0.1 µM, first compound 0.3 µM) 56.7% | viability, T/C (second compound 0.1 µM, first compound 0.949 µM) 51.9% | viability, T/C (second compound 0.1 µM, first compound 3 µM) 34.4% | viability, T/C (second compound 0.316 µM, first compound 0.00949 µM) 83.1% | viability, T/C (second compound 0.316 µM, first compound 0.03 µM) 77.6% | viability, T/C (second compound 0.316 µM, first compound 0.0949 µM) 67.8% | viability, T/C (second compound 0.316 µM, first compound 0.3 µM) 55.3% | viability, T/C (second compound 0.316 µM, first compound 0.949 µM) 41% | viability, T/C (second compound 0.316 µM, first compound 3 µM) 34.2% | viability, T/C (second compound 1 µM, first compound 0.00949 µM) 80.8% | viability, T/C (second compound 1 µM, first compound 0.03 µM) 75.7% | viability, T/C (second compound 1 µM, first compound 0.0949 µM) 72.2% | viability, T/C (second compound 1 µM, first compound 0.3 µM) 54.4% | viability, T/C (second compound 1 µM, first compound 0.949 µM) 43.2% | viability, T/C (second compound 1 µM, first compound 3 µM) 30.7% | viability, T/C (second compound 3.16 µM, first compound 0.00949 µM) 78.6% | viability, T/C (second compound 3.16 µM, first compound 0.03 µM) 80.7% | viability, T/C (second compound 3.16 µM, first compound 0.0949 µM) 70.4% | viability, T/C (second compound 3.16 µM, first compound 0.3 µM) 51.7% | viability, T/C (second compound 3.16 µM, first compound 0.949 µM) 40.1% | viability, T/C (second compound 3.16 µM, first compound 3 µM) 34.6% | viability, T/C (second compound 10 µM, first compound 0.00949 µM) 79.2% | viability, T/C (second compound 10 µM, first compound 0.03 µM) 84.7% | viability, T/C (second compound 10 µM, first compound 0.0949 µM) 74% | viability, T/C (second compound 10 µM, first compound 0.3 µM) 56.1% | viability, T/C (second compound 10 µM, first compound 0.949 µM) 40.2% | viability, T/C (second compound 10 µM, first compound 3 µM) 32%
765 nM: IC50 (second compound 0.1 µM)
501 nM: IC50 (second compound 1 µM)
451 nM: IC50 (second compound 0.316 µM)
362 nM: IC50 (second compound 3.16 µM)

Cc1nc(N2CCC3(CC2)COC(C)C3N)c(CO)nc1Sc1ccnc(N)c1Cl (stereo not given) + CCN1C(C(=O)NC23CCC(C(=O)O)(CC2)CC3)C(c2cccc(Cl)c2F)C2(C(=O)Nc3cc(Cl)ccc32)C12CCCCC2
891 nM: IC50 (second compound 3 µM)
inactive: viability, T/C (second compound 0.03 µM, first compound 0.00949 µM) 98.5% | viability, T/C (second compound 0.03 µM, first compound 0.03 µM) 87.4% | viability, T/C (second compound 0.03 µM, first compound 0.0949 µM) 81.1% | viability, T/C (second compound 0.03 µM, first compound 0.3 µM) 64.8% | viability, T/C (second compound 0.03 µM, first compound 0.949 µM) 59.5% | viability, T/C (second compound 0.03 µM, first compound 3 µM) 38.8% | viability, T/C (second compound 0.0949 µM, first compound 0.00949 µM) 90.7% | viability, T/C (second compound 0.0949 µM, first compound 0.03 µM) 95.8% | viability, T/C (second compound 0.0949 µM, first compound 0.0949 µM) 86.3% | viability, T/C (second compound 0.0949 µM, first compound 0.3 µM) 63.2% | viability, T/C (second compound 0.0949 µM, first compound 0.949 µM) 47.8% | viability, T/C (second compound 0.0949 µM, first compound 3 µM) 43% | viability, T/C (second compound 0.3 µM, first compound 0.00949 µM) 88.7% | viability, T/C (second compound 0.3 µM, first compound 0.03 µM) 93.5% | viability, T/C (second compound 0.3 µM, first compound 0.0949 µM) 69.9% | viability, T/C (second compound 0.3 µM, first compound 0.3 µM) 60.7% | viability, T/C (second compound 0.3 µM, first compound 0.949 µM) 54.7% | viability, T/C (second compound 0.3 µM, first compound 3 µM) 42.5% | viability, T/C (second compound 0.949 µM, first compound 0.00949 µM) 91.3% | viability, T/C (second compound 0.949 µM, first compound 0.03 µM) 91.2% | viability, T/C (second compound 0.949 µM, first compound 0.0949 µM) 76.8% | viability, T/C (second compound 0.949 µM, first compound 0.3 µM) 59.1% | viability, T/C (second compound 0.949 µM, first compound 0.949 µM) 51.2% | viability, T/C (second compound 0.949 µM, first compound 3 µM) 38.4% | viability, T/C (second compound 3 µM, first compound 0.00949 µM) 98.2% | viability, T/C (second compound 3 µM, first compound 0.03 µM) 87.8% | viability, T/C (second compound 3 µM, first compound 0.0949 µM) 85% | viability, T/C (second compound 3 µM, first compound 0.3 µM) 63.8% | viability, T/C (second compound 3 µM, first compound 0.949 µM) 49.6% | viability, T/C (second compound 3 µM, first compound 3 µM) 39.2%
759 nM: IC50 (second compound 0.0949 µM)
1430 nM: IC50 (second compound 0.03 µM)
1050 nM: IC50 (second compound 0.3 µM)
785 nM: IC50 (second compound 0.949 µM)
